Patent US20150315188A1, “COMPOUNDS AND METHODS FOR TREATMENT OF HYPERTENSION” (MEDIVATION TECHNOLOGIES, INC., priority 2012, published 2015)
Values joined by “and” are separate entries in the source; they are usually repeats but may differ in a detail not shown here. Equal entries are not always repeated.

Columns and labels:
Set-up in all cases: purchased Milipore (Millipore)
[1] = molecular target: T1, Human adrenergic α1B receptor (Homo sapiens, UniProt P35368); test: Radioligand binding, adrenergic α1B (Protocol Group B); conditions: Protocol Group B; for Percentage inhibition of ligand binding, Adrenergic α1B (0.3 μM) / inhibition at 0.3 µM: 0.3 μM compound; for inhibition at 0.3 µM: read-out: Percentage inhibition of ligand binding, Adrenergic α1B (0.3 μM)
T1 sequence (P35368 1-520): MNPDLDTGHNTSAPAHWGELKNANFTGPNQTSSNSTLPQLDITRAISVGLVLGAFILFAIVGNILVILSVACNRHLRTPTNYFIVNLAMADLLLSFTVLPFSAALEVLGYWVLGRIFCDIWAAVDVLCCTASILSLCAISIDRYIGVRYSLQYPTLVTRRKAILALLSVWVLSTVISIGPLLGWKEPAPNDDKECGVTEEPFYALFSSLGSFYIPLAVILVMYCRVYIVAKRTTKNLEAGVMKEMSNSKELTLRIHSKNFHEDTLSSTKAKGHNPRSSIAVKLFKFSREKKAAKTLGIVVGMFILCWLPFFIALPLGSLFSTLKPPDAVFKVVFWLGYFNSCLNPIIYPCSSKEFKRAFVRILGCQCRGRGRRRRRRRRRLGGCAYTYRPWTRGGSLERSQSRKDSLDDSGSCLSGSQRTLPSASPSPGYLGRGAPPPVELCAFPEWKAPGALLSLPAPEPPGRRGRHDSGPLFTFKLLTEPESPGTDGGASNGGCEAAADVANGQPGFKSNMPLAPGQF
Procedure: To evaluate the activity of compounds in radioligand binding assays, Human adrenergic α1B receptor obtained from recombinant cell membrane from Milipore. Binding experiments were carried out in Tris-HCl buffer (50 mM Tris-HCl buffer, pH 7.4, 10 mM Mgcl2, 1 mM EDTA) as recommended by Milipore. Compounds were incubated with 0.3 nM [^3H]Prazosin for 60 min at 25° C. Non-specific binding was estimated in the presence of 10 μM prazosin. Receptor proteins were harvested on 0.33% PEI(poly-ethylenemine) soaked GFC filter mat, the specifically bound [^3H]Prazosin were counted to determine total binding. Compounds were screened at various concentrations, using 1% DMSO as vehicle. percent inhibition of specific binding was determined. Biochemical assay results are presented as the percent Inhibition of specific binding in Table B1b, or estimated Ki values in Table B1c.

[2] = molecular target: T2, Human adrenergic α2B receptor (Homo sapiens, UniProt P18089); test: Radioligand binding, adrenergic α2B (Protocol Group B); conditions: Protocol Group B; for Percentage inhibition of ligand binding, Adrenergic α2B (10 nM): 0.01 µM; for Percentage inhibition of ligand binding, Adrenergic α2B (30 nM) / inhibition at 0.03 µM: 30 nM compound; for Percentage inhibition of ligand binding, Adrenergic α2B (30 nM): 0.03 µM; for Percentage inhibition of ligand binding, Adrenergic α2B (0.1 μM) / inhibition at 0.1 µM: 0.1 μM compound; for inhibition at 0.03 µM: read-out: Percentage inhibition of ligand binding, Adrenergic α2B (30 nM); for inhibition at 0.1 µM: read-out: Percentage inhibition of ligand binding, Adrenergic α2B (0.1 μM)
T2 sequence (P18089 1-450): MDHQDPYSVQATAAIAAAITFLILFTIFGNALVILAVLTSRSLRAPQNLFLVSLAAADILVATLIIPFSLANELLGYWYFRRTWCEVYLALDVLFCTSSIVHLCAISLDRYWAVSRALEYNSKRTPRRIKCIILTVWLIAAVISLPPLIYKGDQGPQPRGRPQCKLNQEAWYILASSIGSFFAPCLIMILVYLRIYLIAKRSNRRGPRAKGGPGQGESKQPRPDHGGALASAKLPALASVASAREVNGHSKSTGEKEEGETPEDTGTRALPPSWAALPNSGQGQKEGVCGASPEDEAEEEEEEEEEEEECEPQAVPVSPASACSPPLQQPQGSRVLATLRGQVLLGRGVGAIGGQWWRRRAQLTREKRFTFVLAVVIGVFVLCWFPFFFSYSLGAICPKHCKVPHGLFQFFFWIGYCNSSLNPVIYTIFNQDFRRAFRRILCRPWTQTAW
Procedure: To evaluate the activity of compounds in radioligand binding assays, Human adrenergic α2B receptor obtained from recombinant cell membrane from Milipore. Binding experiments were carried out in Tris-HCl buffer (50 mM Tris-HCl buffer, pH 7.4, 5 mM Mgcl2, 1 mM Cacl2, 0.2% BSA) as recommended by Milipore. […] Non-specific binding was estimated in the presence of 10 μM Rauwolscine. […] Compounds were screened at various concentrations, using 1% DMSO as vehicle. Biochemical assay results are presented as the percent Inhibition of specific binding in Table B1b, or estimated Ki values in Table B1c.

[3] = molecular target: T3, Human adrenergic α2A receptor (Homo sapiens, UniProt P08913); test: Radioligand binding, adrenergic α2A (Protocol Group B); conditions: Protocol Group B
T3 sequence (P08913 1-465): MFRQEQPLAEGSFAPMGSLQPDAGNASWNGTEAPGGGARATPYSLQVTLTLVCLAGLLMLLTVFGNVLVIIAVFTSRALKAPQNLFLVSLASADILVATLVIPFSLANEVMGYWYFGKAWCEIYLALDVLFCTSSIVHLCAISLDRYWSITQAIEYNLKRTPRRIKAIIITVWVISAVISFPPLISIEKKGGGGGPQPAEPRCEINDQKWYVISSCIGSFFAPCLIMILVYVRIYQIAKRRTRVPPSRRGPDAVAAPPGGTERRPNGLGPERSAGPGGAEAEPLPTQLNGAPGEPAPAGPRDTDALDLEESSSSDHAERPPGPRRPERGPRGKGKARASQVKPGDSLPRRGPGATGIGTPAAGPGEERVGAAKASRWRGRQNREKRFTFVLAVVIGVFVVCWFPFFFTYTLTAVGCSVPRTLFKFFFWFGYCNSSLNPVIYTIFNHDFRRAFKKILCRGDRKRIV
Procedure: To evaluate the activity of compounds in radioligand binding assays, Human adrenergic α2A receptor obtained from recombinant cell membrane from Milipore. Binding experiments were carried out in Tris-HCl buffer (50 mM Tris-HCl buffer, pH 7.4, 5 mM Mgcl2, 1 mM Cacl2, 0.2% BSA) as recommended by Milipore. Compounds were incubated with 2 nM [^3H]MK-912 for 60 min at 25° C. Non-specific binding was estimated in the presence of 10 μM Rauwolscine. Receptor proteins were harvested on 0.33% PEI(poly-ethylenemine) soaked GFC filter mat, the specifically bound [^3H]MK-912 were counted to determine total binding. Compounds were screened at various concentrations, using 1% DMSO as vehicle. percent inhibition of specific binding was determined. Biochemical assay results are presented as the percent Inhibition of specific binding in Table B1b, or estimated Ki values in Table B1c.

Row | Percentage inhibition of ligand binding, Adrenergic α1B (0.1 μM) ([1]; 0.1 μM compound) | Percentage inhibition of ligand binding, Adrenergic α1B (0.3 μM) [1] [%] | Percentage inhibition of ligand binding, Adrenergic α2B (10 nM) ([2]; 10 nM compound) [%] | Percentage inhibition of ligand binding, Adrenergic α2B (30 nM) [2] [%] | Percentage inhibition of ligand binding, Adrenergic α2B (0.1 μM) [2] [%] | Percentage inhibition of ligand binding, Adrenergic α2A (0.1 μM) ([3]; 0.1 μM compound) [%] | Percentage inhibition of ligand binding, Adrenergic α2A (0.3 μM) ([3]; 0.3 μM compound, 0.3 µM) [%] | SMILES | further results
1 | 2% | 12 | −1 | −1 | 5 | −11 | −7 | Cc1cc(F)cc2c3c(n(CC(C)(O)c4ccncc4)c12)CC1CCCN1C3 (single isomer, unassigned) [78a] | –
2 | −8% | 11 | 12 | 21 | 53 | −3 | 12 | Cc1cc(F)cc2c3c(n(CC(C)(O)c4cccnc4)c12)CC1CCCN1C3 (single isomer, unassigned) [76a] | –
3 | 12% | 40 | 23 | – | – | 26 | 50 | CN1CCc2c(c3cc(C(F)(F)F)ccc3n2CC(OC2CCCC2)c2ccncc2)C1 (single isomer, unassigned) [60a] | inhibition at 0.03 µM [2]: 47%; inhibition at 0.1 µM [2]: 72%
4 | 0% | – | – | 11 | – | 4 | – | Cc1ccc2c(c1)c1c(n2CC(OCC2CCC2)c2ccncc2)CCN2CCCC12 (single isomer, unassigned) [138d] | –
5 | 0% | 11 | 4 | −11 | 17 | −11 | 6 | CC(O)(Cn1c2c(c3cc(F)ccc31)C1CCCN1CC2)c1ccncc1 (single isomer, unassigned) [31d] | –
6 | 0% | 5 | −19 | −14 | −10 | −7 | – | Cc1ccc2c(c1)c1c(n2CC(O)c2ccncc2)CN(C)C2CCCC12 (single isomer, unassigned) [36b] | Percentage inhibition of ligand binding, Adrenergic α2A (0.3 μM) ([3]; 0.3 μM compound): −5%
7 | 73% | – | – | – | – | – | – | Cc1ccc2c(c1)c1c(n2CC(O)c2ccncc2)CCN2CCCC12 (single isomer, unassigned) [Compound No. 178a] | –
8 | −8% | −5 | −9 | −4 | −1 | −8 | −5 | Cc1cc(C)c2c(c1)c1c(n2CC(C)(O)c2ccncc2)CCN2CCCC12 (single isomer, unassigned) [19d] | –
9 | −7% | 9 | 7 | 27 | 76 | 3 | 20 | Cc1ccc2c(c1)c1c(n2CC(C)(O)c2ccncc2)CCN2CCCC12 (single isomer, unassigned) [13d] | –
10 | – | – | – | – | – | – | – | Cc1cc2c3c(n(CC(O)c4ccncc4)c2cc1Cl)CCN1CCCC31 (stereo not drawn) [compound 21, 2-(8-chloro-9-methyl-1,2,3,4,5,10c-hexahydro-3a, 6-diaza-cyclopenta[c]fluoren-6-yl)-1-pyridin-4-yl-ethanol] | inhibition at 0.1 µM ([1]; 0.1 μM compound, read-out: Percentage inhibition of ligand binding, Adrenergic α1B (0.1 μM)): 84%; inhibition at 0.3 µM [1]: 95%; inhibition at 0.01 µM ([2]; 10 nM compound, read-out: Percentage inhibition of ligand binding, Adrenergic α2B (10 nM)): 85%; inhibition at 0.03 µM [2]: 96%; inhibition at 0.1 µM [2]: 96%; inhibition at 0.1 µM ([3]; 0.1 μM compound, read-out: Percentage inhibition of ligand binding, Adrenergic α2A (0.1 μM)): 78%; inhibition at 0.3 µM ([3]; 0.3 μM compound, read-out: Percentage inhibition of ligand binding, Adrenergic α2A (0.3 μM)): 89%
11 | – | – | – | – | – | – | – | CC(O)(Cn1c2c(c3cc(F)ccc31)C1CCCN1CC2)c1cccnc1 (stereo not drawn) [compound 51] | Ki ([2]; estimated Ki, read-out: Ki α2B): 1.58 nM
12 | 69% | – | – | – | – | 55 | – | Cc1ccc2c(c1)c1c(n2CC(O)c2ccncc2)CCN2CCCC12 (single isomer, unassigned) [Compound No. 178b] | –
13 | 94% and 96% | – | – | – | – | 35 | – | Cc1ccc2c(c1)c1c(n2CC(O)c2ccncc2)CCN2CCCC12 (single isomer, unassigned) [Compound No. 178c] | –

Row | SMILES | Percentage inhibition of ligand binding, Adrenergic α1B (0.1 μM) ([1]; 0.1 μM compound) | Percentage inhibition of ligand binding, Adrenergic α1B (0.3 μM) [1] [%] | Percentage inhibition of ligand binding, Adrenergic α2B (10 nM) ([2]; 10 nM compound) [%] | Percentage inhibition of ligand binding, Adrenergic α2B (30 nM) [2] [%] | Percentage inhibition of ligand binding, Adrenergic α2B (0.1 μM) [2] [%] | Percentage inhibition of ligand binding, Adrenergic α2A (0.1 μM) ([3]; 0.1 μM compound) [%] | Percentage inhibition of ligand binding, Adrenergic α2A (0.3 μM) ([3]; 0.3 μM compound, 0.3 µM) [%] | further results
14 | Cc1ccc2c(c1)c1c(n2CC(C)(O)c2cccnc2)CC2CCC1N2C (single isomer, unassigned) [101b] | −3% | – | 2 | 3 | 32 | 1 | 8 | inhibition at 0.3 µM [1]: 5%
